# Strand notation (5' to 3'): a small letter for the sugar, then the base; units joined by * are phosphorothioate-linked, units joined directly phosphodiester-linked; [ ] holds rarer units or linkages, { } end groups; capitals alone tell only the bases. l = locked nucleic acid (LNA); [5mC] = 5-methylcytosine; d = 2'-deoxy (DNA)
# Experiments:
# [1] = system: human androgen receptor mRNA; assay: Inhibition of androgen receptor mRNA expression in A549 cells, real-time PCR after transfection; assay type: cell-based; conditions: 16 nM oligonucleotide, AR mRNA normalised to GAPDH, down-regulation relative to mock transfected cells
# Experimental: (§1) FIG. 2. Oligonucleotides presented in Table 3 were evaluated for their potential to knockdown the androgen receptor mRNA at concentrations of 1, 4 and 16 nM in A549 cells 24 hours after transfection using Real-time PCR. All results were normalised to GAPDH and inhibition of AR mRNA is shown as percent of untreated control. Results shown are an average of three independent experiments.
# A549 The human lung cancer cell line […] was cultured in DMEM (Sigma)+10% fetal bovine serum (FBS)+2 mM Glutamax I+gentamicin (25 μg/ml).
# (§2) The cell lines listed in Example 4 were treated with an oligomer using the cationic liposome formulation LipofectAMINE 2000 (Gibco) as transfection vehicle. Cells were seeded in 6-well cell culture plates (NUNC) and treated when 80-90% confluent. Oligomer concentrations used ranged from 1 nM to 16 nM final concentration. Formulation of oligomer-lipid complexes were carried out essentially as described by the manufacturer using serum-free OptiMEM (Gibco) and a final lipid concentration of 5 μg/mL LipofectAMINE 2000. Cells were incubated at 37° C. for 4 hours and treatment was stopped by removal of oligomer-containing culture medium. Cells were washed and serum-containing media was added. After oligomer treatment, cells were allowed to recover for 20 hours before they were harvested for RNA analysis.
# (§3) Total RNA was extracted from cells transfected as described above and using the Qiagen RNeasy kit (Qiagen cat. no. 74104) according to the manufacturer's instructions. First strand synthesis was performed using Reverse Transcriptase reagents from Ambion according to the manufacturer's instructions.
# (§4) For each sample, the volume of 0.5 •g total RNA was adjusted to 10.8 •l with RNase free H2O and mixed with 2 •l random decamers (50 •M) and 4 •l dNTP mix (2.5 mM each dNTP) and heated to 70° C. for 3 min, after which the samples were rapidly cooled on ice. After cooling the samples on ice, 2 •l 10× Buffer RT, 1 •l MMLV Reverse Transcriptase (100 U/•l) and 0.25 •l RNase inhibitor (10 U/•l) were added to each sample, followed by incubation at 42° C. for 60 min, heat inactivation of the enzyme at 95° C. for 10 min and then cooling of the sample to 4° C.
# (§5) The amount of human androgen receptor mRNA in the samples was quantified using the human androgen receptor ABI Prism Pre-Developed TaqMan Assay Reagents (Applied Biosystems cat. no. Hs00171172_m1) according to the manufacturer's instructions.
# (§6) Glyceraldehyde-3-phosphate dehydrogenase (GAPDH) mRNA quantity was used as an endogenous control for normalizing any variance in sample preparation.
# (§7) The cDNA from the first strand synthesis performed as described in Example 6 was diluted 2-20 times, and analyzed by real time quantitative PCR using Taquman 7500 FAST or 7900 FAST from Applied Biosystems. The primers and probe were mixed with 2× Taqman Fast Universal PCR master mix (2×) (Applied Biosystems Cat. #4364103) and added to 4 μl cDNA to a final volume of 10 μl. Each sample was analysed in duplicate. Standard curves were generated by assaying 2-fold dilutions of a cDNA that had been prepared on material purified from a cell line expressing the RNA of interest. Sterile H2O was used instead of cDNA for the no-template control. PCR program: 95° C. for 30 seconds, followed by 40 cycles of 95° C., 3 seconds, 60° C., 20-30 seconds. Relative quantities of target mRNA were determined from the calculated Threshold cycle using the Applied Biosystems Fast System SDS Software Version 1.3.1.21. or SDS Software Version 2.3.
# (§8) Oligonucleotides presented in Table 3 were evaluated for their potential to knock down androgen receptor mRNA expression at concentrations of 1, 4 and 16 nM (see FIGS. 1 and 2).
# (§9) The data in Table 3 are presented as percentage down-regulation relative to mock transfected cells at 16 nM. Lower case letters represent DNA monomers, bold, upper case letters represent β-D-oxy-LNA monomers. All cytosine bases in the LNA monomers are 5-methylcytosines. […]
# [2] = system: human androgen receptor mRNA; assay: Inhibition of androgen receptor mRNA expression in MCF7 cells, real-time PCR after transfection; assay type: cell-based; conditions: 16 nM oligonucleotide, AR mRNA normalised to GAPDH, down-regulation relative to mock transfected cells
# Experimental: as §1, with “1.” for “2.”, “n-M” for “nM”, “MCF7” for “A549”
# MCF7 The human breast cancer cell line MCF7 was cultured in EagleMEM (Sigma)+10% fetal bovine serum (FBS)+2 mM Glutamax I+1×NEAA+gentamicin (25 μg/ml).
# as §2, §3, §4, §5, §6, §7, §8, §9
# [3] = system: mouse androgen receptor mRNA; assay: In vivo knock-down of AR mRNA expression in mouse liver (QPCR); conditions: nude mice, 100 mg/kg i.v. q3dx4, liver 24 h after last dosing, normalised to mouse GAPDH, relative to saline treated animals
# Experimental: Nude mice were dosed i.v. q3dx4 with 100 mg/kg oligonucleotide (group size of 5 mice). The antisense oligonucleotides (SEQ ID:48, SEQ ID:51, SEQ ID:58, SEQ ID:63, SEQ ID:77) were dissolved in phosphate buffered saline. Animals were sacrificed 24 h after last dosing and liver tissue was sampled and stored in RNA later until RNA extraction and QPCR analysis. Total RNA was extracted and AR mRNA expression in liver samples was measured by QPCR as described in Example 7 using a mouse AR QPCR assay (cat. Mm01238475_m1, Applied Biosystems). Results were normalised to mouse GAPDH (cat. no. 4352339E, Applied Biosystems) and knock-own was quantitated relative to saline treated controls. The data in Table 4 are presented as percentage down-regulation relative to saline treated animals.
Substance,Percent inhibition of Androgen receptor - A549 [1],Percent inhibition of Androgen receptor - MCF7 [2],Liver (% KD) of AR mRNA expression [3]
"5′-GsAsAsgststscsastscsasasasGsAsA-3′ (antisense lG*lA*lA*dG*dT*dT*dC*dA*dT*dC*dA*dA*dA*lG*lA*lA) [SEQ ID NO: 68, LNA gapmer antisense oligonucleotide]",85.6%,88.2%,
"5′-TsTsTsgsascsascsasasgstsgsGsGsA-3′ (antisense lT*lT*lT*dG*dA*dC*dA*dC*dA*dA*dG*dT*dG*lG*lG*lA) [SEQ ID NO: 51, LNA gapmer antisense oligonucleotide]",,,65.0 +/− 12.6%
"5′-GsCsAscsasasgsgsasgstsgsgsGsAsC-3′ (antisense lG*l[5mC]*lA*dC*dA*dA*dG*dG*dA*dG*dT*dG*dG*lG*lA*l[5mC]) [SEQ ID NO: 47, LNA gapmer antisense oligonucleotide]",77.7%,83.1%,
"5′-CsCsCscstsgsgsascstscsasgsAsTsG-3′ (antisense l[5mC]*l[5mC]*l[5mC]*dC*dT*dG*dG*dA*dC*dT*dC*dA*dG*lA*lT*lG) [SEQ ID NO: 46, LNA gapmer antisense oligonucleotide]",82.8%,89.4%,
"5′-CsAsTscscscstsgscststscsasTsAsA-3′ (antisense l[5mC]*lA*lT*dC*dC*dC*dT*dG*dC*dT*dT*dC*dA*lT*lA*lA) [SEQ ID NO: 57, LNA gapmer antisense oligonucleotide]",88.9%,89.5%,
"5′-GsGsAscscsasgsgstsasgscscsTsGsT-3′ (antisense lG*lG*lA*dC*dC*dA*dG*dG*dT*dA*dG*dC*dC*lT*lG*lT) [SEQ ID NO: 45, LNA gapmer antisense oligonucleotide]",88.2%,89.0%,
"5′-TsTsGscsascsasgsasgsastsgsAsTsC-3′ (antisense lT*lT*lG*dC*dA*dC*dA*dG*dA*dG*dA*dT*dG*lA*lT*l[5mC]) [SEQ ID NO: 72, LNA gapmer antisense oligonucleotide]",90.4%,79.2%,
"5′-CsAsGsgscsasgsasasgsascsasTsCsT-3′ (antisense l[5mC]*lA*lG*dG*dC*dA*dG*dA*dA*dG*dA*dC*dA*lT*l[5mC]*lT) [SEQ ID NO: 76, LNA gapmer antisense oligonucleotide]",94.3%,85.9%,
"5′-GsCsTststscsastsgscsascsasgsGsA-3′ (antisense lG*l[5mC]*lT*dT*dT*dC*dA*dT*dG*dC*dA*dC*dA*dG*lG*lA) [SEQ ID NO: 67, LNA gapmer antisense oligonucleotide]",97.0%,83.5%,
"5′-TsCsCstsgsgsasgststsgsascsAsTsT-3′ (antisense lT*l[5mC]*l[5mC]*dT*dG*dG*dA*dG*dT*dT*dG*dA*dC*lA*lT*lT) [SEQ ID NO: 62, LNA gapmer antisense oligonucleotide]",93.0%,81.3%,
5′-GsAsGsasascscsastscscstscsAsCsC-3′ (antisense lG*lA*lG*dA*dA*dC*dC*dA*dT*dC*dC*dT*dC*lA*l[5mC]*l[5mC]) [SEQ ID NO: 44],63.8%,80.1%,
"5′-CsAsTscscsasasascstscststsGsAsG-3′ (antisense l[5mC]*lA*lT*dC*dC*dA*dA*dA*dC*dT*dC*dT*dT*lG*lA*lG) [SEQ ID NO: 66, LNA gapmer antisense oligonucleotide]",95.3%,79.8%,
"5′-CsTsTsgsgscscscsascststsgsAsCsC-3′ (antisense l[5mC]*lT*lT*dG*dG*dC*dC*dC*dA*dC*dT*dT*dG*lA*l[5mC]*l[5mC]) [SEQ ID NO: 61, LNA gapmer antisense oligonucleotide]",93.3%,86.7%,
